Laboratory results taken from ChEMBL document CHEMBL4400537, “Virtual Screening Identifies Irreversible FMS-like Tyrosine Kinase 3 Inhibitors with Activity toward Resistance-Conferring Mutations” (J Med Chem, 2019).
Values belong to the molecule of their own block, whether it stands above or below them. Activity calls are given as the source filed them. The calls are words filed in the database; no cut-off is given here.

What was measured:
MV4-11 [1] = assay: cells; details: Homo sapiens, MV4-11, 72 h
[2] = Toxicity in zebrafish embryo assessed as mortality at 10 uM measured 120 hpf by fluorescence microscopy; set-up: species or system Danio rerio; details: in vivo
Jurkat = assay: cells; details: Homo sapiens, 72 h
THP-1 = assay: cells; details: Homo sapiens, THP-1, 72 h
[3] = system: T1, Receptor-type tyrosine-protein kinase FLT3 (Homo sapiens), P36888 [D835Y]; assay: Irreversible inhibition of recombinant human FLT3 D835Y mutant (571 to 993 residues) expressed in baculovirus expression system at 1 uM preincubated for 5 to 30 mins followed by myelobasic protein addition measured after 120 mins using BODIPY-tagged compounds in presence of ATP by ADP-Glo assay relative to control
T1 sequence (whole entry): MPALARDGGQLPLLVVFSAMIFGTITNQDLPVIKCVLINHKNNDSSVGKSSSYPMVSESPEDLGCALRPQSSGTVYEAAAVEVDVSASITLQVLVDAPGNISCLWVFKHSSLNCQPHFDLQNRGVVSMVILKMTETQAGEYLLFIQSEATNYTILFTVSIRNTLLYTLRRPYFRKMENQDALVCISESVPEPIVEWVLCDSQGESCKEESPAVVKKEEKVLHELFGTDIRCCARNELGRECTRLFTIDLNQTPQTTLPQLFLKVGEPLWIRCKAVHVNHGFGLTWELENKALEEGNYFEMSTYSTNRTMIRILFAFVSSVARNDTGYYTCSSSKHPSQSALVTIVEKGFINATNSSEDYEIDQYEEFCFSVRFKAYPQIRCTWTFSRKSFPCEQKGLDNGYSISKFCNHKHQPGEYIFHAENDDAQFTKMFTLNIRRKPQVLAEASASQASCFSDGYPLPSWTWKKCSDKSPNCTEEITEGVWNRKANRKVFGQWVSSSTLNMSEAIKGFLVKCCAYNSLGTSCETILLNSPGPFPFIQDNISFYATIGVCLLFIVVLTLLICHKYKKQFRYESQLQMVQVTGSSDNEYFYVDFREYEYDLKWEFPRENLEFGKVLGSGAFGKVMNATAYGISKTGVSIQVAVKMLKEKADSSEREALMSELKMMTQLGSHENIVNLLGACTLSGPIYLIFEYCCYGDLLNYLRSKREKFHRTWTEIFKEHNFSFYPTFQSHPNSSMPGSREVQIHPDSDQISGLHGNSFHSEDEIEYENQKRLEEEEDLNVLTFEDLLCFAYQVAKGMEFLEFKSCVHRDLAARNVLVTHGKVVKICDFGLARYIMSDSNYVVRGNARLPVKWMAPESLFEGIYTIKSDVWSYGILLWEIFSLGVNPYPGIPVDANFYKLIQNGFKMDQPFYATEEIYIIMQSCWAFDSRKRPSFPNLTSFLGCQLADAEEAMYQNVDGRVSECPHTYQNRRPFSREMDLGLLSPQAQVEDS

[4] = system: T1, Receptor-type tyrosine-protein kinase FLT3 (Homo sapiens), P36888 [D835Y]; assay: Covalent binding affinity to recombinant human FLT3 D835Y mutant (571 to 993 residues) expressed in baculovirus expression system at 100 uM by Western blot analysis
[5] = system: T1, Receptor-type tyrosine-protein kinase FLT3 (Homo sapiens), P36888 [D835Y]; assay: Covalent binding affinity to recombinant human FLT3 D835Y mutant (571 to 993 residues) expressed in baculovirus expression system at 50 uM by Western blot analysis
[6] = Drug uptake in zebrafish embryo gastrointestine at 10 uM starting 1 dpf and measured at 4 dpf by fluorescence microscopy; assay type: ADME, Danio rerio, Gastrointestinal tract; details: in vivo
MV4-11 [7] = assay: Cytotoxicity in human MV4-11 cells assessed as inhibition of cellular viability at 0.5 to 5000 nM incubated for 2 to 8 hrs followed by compound washout by CellTiter-Glo luminescent assay; assay type: functional, cell-based
[8] = target: Glycogen synthase kinase-3 alpha (Homo sapiens) (UniProt P49840); assay: Inhibition of human N-terminal His-tagged GSK3alpha expressed in baculovirus expression system at 1 uM relative to control
Chain of Glycogen synthase kinase-3 alpha (Homo sapiens) (P49840 2-483 limits assumed): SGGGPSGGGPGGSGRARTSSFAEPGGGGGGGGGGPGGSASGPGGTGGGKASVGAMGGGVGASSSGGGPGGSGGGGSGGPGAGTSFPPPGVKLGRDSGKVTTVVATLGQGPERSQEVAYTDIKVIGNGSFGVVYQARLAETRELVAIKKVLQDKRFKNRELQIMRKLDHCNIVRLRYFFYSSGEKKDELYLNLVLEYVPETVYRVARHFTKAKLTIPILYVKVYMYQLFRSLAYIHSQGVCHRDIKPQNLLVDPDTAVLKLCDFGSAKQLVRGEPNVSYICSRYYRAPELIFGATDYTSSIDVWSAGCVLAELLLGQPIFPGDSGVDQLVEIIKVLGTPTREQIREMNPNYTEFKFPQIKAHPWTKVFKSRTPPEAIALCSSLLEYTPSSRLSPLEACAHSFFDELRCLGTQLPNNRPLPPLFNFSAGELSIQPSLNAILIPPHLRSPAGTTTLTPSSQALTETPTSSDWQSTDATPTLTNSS

[9] = target: Glycogen synthase kinase-3 beta (Homo sapiens) (UniProt P49841); assay: Inhibition of human N-terminal His-tagged GSK3beta expressed in baculovirus expression system at 1 uM relative to control
Chain of Glycogen synthase kinase-3 beta (Homo sapiens) (P49841 whole entry, looked up): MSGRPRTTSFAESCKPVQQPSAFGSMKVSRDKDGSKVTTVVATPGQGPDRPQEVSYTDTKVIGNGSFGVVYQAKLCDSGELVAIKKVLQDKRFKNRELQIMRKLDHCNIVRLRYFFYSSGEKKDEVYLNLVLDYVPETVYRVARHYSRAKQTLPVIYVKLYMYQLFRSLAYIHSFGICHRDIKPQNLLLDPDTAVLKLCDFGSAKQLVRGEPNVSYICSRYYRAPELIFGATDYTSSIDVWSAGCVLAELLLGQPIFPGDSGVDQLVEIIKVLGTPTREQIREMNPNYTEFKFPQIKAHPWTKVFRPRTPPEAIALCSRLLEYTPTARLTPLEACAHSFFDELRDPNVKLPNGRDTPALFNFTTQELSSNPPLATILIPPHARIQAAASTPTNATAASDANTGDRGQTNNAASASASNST

physchem = details: potassium phosphate buffer with reduced glutathione
[10] = system: T1, Receptor-type tyrosine-protein kinase FLT3 (Homo sapiens), P36888 [D835Y]; assay: Inhibition of covalent binding of (Z)-N-(2-(2-(4-(2,8-Diethyl-5,5-difluoro-1,3,7,9-tetramethyl-5H-4lambda4,5lambda4-dipyrrolo[1,2-c:2',1'-f ][1,3,2]diazaborinin-10-yl)phenoxy)-acetamido)ethyl)-2,4-dimethyl-5-((2-oxo-5-(vinylsulfon-amido)-indolin-3-ylidene)methyl)-1H-pyrrole-3-carboxamide to recombinant human FLT3 D835Y mutant (571 to 993 residues) expressed in baculovirus expression system at […] by Western blot analysis
MOLM-14 = assay: cells; details: Homo sapiens, MOLM-14, 72 h

Structure (SMILES): CC(=O)Nc1ccc2c(c1)/C(=C/c1ccc[nH]1)C(=O)N2
Activity [2]: Non-Toxic
IC50 (MV4-11 [1]): > 0.001 µM

Structure (SMILES): C=CC(=O)Nc1ccc(Nc2nccc(Nc3cc(C4CC4)[nH]n3)n2)cc1
IC50 (MV4-11 [1]): 0.521 µM

Structure (SMILES): CCS(=O)(=O)Nc1ccc2c(c1)/C(=C/c1ccc[nH]1)C(=O)N2
IC50 (MV4-11 [1]): > 0.001 µM

Structure (SMILES): O=C1Nc2ccccc2/C1=C/c1ccccc1
IC50 (MV4-11 [1]): > 0.001 µM

Structure (SMILES): CCN(CC)CCNC(=O)c1c(C)[nH]c(/C=C2\C(=O)Nc3ccc(NC(C)=O)cc32)c1C
IC50 (MV4-11 [1]): > 1 µM

Structure (SMILES): C=CS(=O)(=O)Nc1ccc2c(c1)/C(=C/c1[nH]c(C)c(C(=O)NCCNC(=O)COc3ccc(C4=C5C(C)=C(CC)C(C)=[N+]5[B-](F)(F)n5c(C)c(CC)c(C)c54)cc3)c1C)C(=O)N2
inhibition [3]: 89%
Activity [4]: Active
Activity [5]: Active
Drug uptake [6]: Active

Structure (SMILES): CCN(CC)CCNC(=O)c1c(C)[nH]c(/C=C2\C(=O)Nc3ccc(NS(=O)(=O)CC)cc32)c1C
IC50 (MV4-11 [1]): 0.643 µM

Structure (SMILES): c1ccc(-c2cnc3[nH]cc(-c4ccccc4)c3c2)cc1
IC50 (MV4-11 [1]): > 0.001 µM

Structure (SMILES): C=CC(=O)Nc1ccc2c(c1)/C(=C/c1ccc[nH]1)C(=O)N2
IC50 (MV4-11 [1]): > 0.001 µM

Structure (SMILES): O=C(CCl)Nc1ccc2c(c1)/C(=C/c1ccc[nH]1)C(=O)N2
IC50 (MV4-11 [1]): 0.072 µM

Structure (SMILES): CCC(=O)Nc1ccc2c(c1)/C(=C/c1ccc[nH]1)C(=O)N2
IC50 (MV4-11 [1]): > 0.001 µM

Structure (SMILES): CC1(COc2ccc3c(c2)ncn3-c2ccc3cccc(N4CCC(N)CC4)c3n2)COC1 [CRENOLANIB]
Activity [2]: Toxic
Activity (MV4-11 [7]): Active
IC50 (Jurkat): > 1 µM
IC50 (THP-1): > 1 µM
IC50 (MV4-11 [1]): 0.012 µM

Structure (SMILES): C#CC(=O)Nc1ccc2c(c1)/C(=C/c1ccc[nH]1)C(=O)N2
IC50 (MV4-11 [1]): 0.709 µM

Structure (SMILES): c1ccc(Nc2nccc(Nc3cc(C4CC4)[nH]n3)n2)cc1
Activity [2]: Toxic
inhibition [8]: 74%
inhibition [9]: 76%
IC50 (MV4-11 [1]): 0.23 µM

Structure (SMILES): O=C(CF)Nc1ccc2c(c1)/C(=C/c1ccc[nH]1)C(=O)N2
Activity [2]: Toxic
half-life at 10 µM (physchem): > 24 h
IC50 (MV4-11 [1]): 0.845 µM

Structure (SMILES): CC1=CC(C)=[N+]2C1=Cc1ccc(CCC(=O)NCCNC(=O)c3c(C)[nH]c(/C=C4\C(=O)Nc5ccc(NC(=O)CCl)cc54)c3C)n1[B-]2(F)F
inhibition [3]: 55%
Activity [5]: Active
Drug uptake [6]: Active

Structure (SMILES): O=C1Nc2ccccc2/C1=C/c1ccc[nH]1
inhibition [8]: 12%
inhibition [9]: -6%

Structure (SMILES): O=C(O)Cc1c[nH]c2ccccc12
inhibition [10]: Active

Structure (SMILES): C=CS(=O)(=O)Nc1ccc2c(c1)/C(=C/c1ccc[nH]1)C(=O)N2
IC50 (MV4-11 [1]): 0.067 µM

Structure (SMILES): O=C(CBr)Nc1ccc2c(c1)/C(=C/c1ccc[nH]1)C(=O)N2
Activity [2]: Toxic
IC50 (MV4-11 [1]): 0.653 µM

Structure (SMILES): CCC1=C(C)C2=C(c3ccc(OCC(=O)NCCNC(=O)c4c(C)[nH]c(/C=C5\C(=O)Nc6ccc(NC(=O)C(F)(F)F)cc65)c4C)cc3)c3c(C)c(CC)c(C)n3[B-](F)(F)[N+]2=C1C
inhibition [3]: 34%
Activity [4]: 18%
inhibition [5]: 7%

Structure (SMILES): COc1cc(O)c2c(c1)[C@H]1O[C@@H]1C[C@H](O)[C@H](O)C(=O)/C=C\C[C@H](C)OC2=O [HYPOTHEMYCIN]
Activity [2]: Toxic
IC50 (Jurkat): > 1 µM
IC50 (THP-1): > 1 µM
IC50 (MV4-11 [1]): 0.015 µM

Structure (SMILES): CC(=O)Nc1ccc2c(c1)/C(=C/c1[nH]c(C)c(C(=O)NCCNC(=O)CCc3ccc4n3[B-](F)(F)[N+]3=C(C)C=C(C)C3=C4)c1C)C(=O)N2
inhibition [3]: 23%
Activity [4]: inactive
Activity [5]: inactive

Structure (SMILES): C#CC(=O)Nc1ccc(Nc2nccc(Nc3cc(C4CC4)[nH]n3)n2)cc1
IC50 (MV4-11 [1]): > 0.001 µM

Structure (SMILES): CCN(CC)CCNC(=O)c1c(C)[nH]c(/C=C2\C(=O)Nc3ccc(NC(=O)CCl)cc32)c1C
Activity [2]: Non-Toxic
half-life at 10 µM (physchem): 3.63 h
IC50 (MOLM-14): 0.0264 µM
IC50 (Jurkat): > 1 µM
IC50 (THP-1): > 1 µM
IC50 (MV4-11 [1]): 0.021 µM

Structure (SMILES): c1ccc(-c2cnc3ccccn23)cc1
IC50 (MV4-11 [1]): > 0.001 µM

The next lines start with the values.

IC50 (MV4-11 [1]): > 0.001 µM
Structure (SMILES): CC(=O)Nc1cccc(Nc2nccc(Nc3cc(C4CC4)[nH]n3)n2)c1

IC50 (MV4-11 [1]): > 0.001 µM
Structure (SMILES): CCC(=O)Nc1ccc(Nc2nccc(Nc3cc(C4CC4)[nH]n3)n2)cc1

IC50 (Jurkat): 0.298 µM
IC50 (THP-1): 0.514 µM
IC50 (MV4-11 [1]): 0.058 µM
Structure (SMILES): C=CS(=O)(=O)Nc1ccc(Nc2nccc(Nc3cc(C4CC4)[nH]n3)n2)cc1

IC50 (MV4-11 [1]): > 0.001 µM
Structure (SMILES): CCC(=O)Nc1cccc(Nc2nccc(Nc3cc(C4CC4)[nH]n3)n2)c1

IC50 (MV4-11 [1]): 0.175 µM
Structure (SMILES): O=C(CCl)Nc1cccc(Nc2nccc(Nc3cc(C4CC4)[nH]n3)n2)c1

IC50 (MV4-11 [1]): 0.489 µM
Structure (SMILES): CCS(=O)(=O)Nc1cccc(Nc2nccc(Nc3cc(C4CC4)[nH]n3)n2)c1

IC50 (MV4-11 [1]): > 0.001 µM
Structure (SMILES): C#CC(=O)Nc1cccc(Nc2nccc(Nc3cc(C4CC4)[nH]n3)n2)c1

IC50 (MV4-11 [1]): 0.129 µM
Structure (SMILES): CCS(=O)(=O)Nc1ccc(Nc2nccc(Nc3cc(C4CC4)[nH]n3)n2)cc1

IC50 (MV4-11 [1]): > 0.001 µM
Structure (SMILES): CC(=O)Nc1ccc(Nc2nccc(Nc3cc(C4CC4)[nH]n3)n2)cc1

IC50 (Jurkat): 0.044 µM
IC50 (THP-1): 0.172 µM
IC50 (MV4-11 [1]): 0.0023 µM
Structure (SMILES): C=CS(=O)(=O)Nc1cccc(Nc2nccc(Nc3cc(C4CC4)[nH]n3)n2)c1

IC50 (MV4-11 [1]): 0.787 µM
Structure (SMILES): C=CC(=O)Nc1cccc(Nc2nccc(Nc3cc(C4CC4)[nH]n3)n2)c1

IC50 (MV4-11 [1]): 0.141 µM
Structure (SMILES): O=C(CCl)Nc1ccc(Nc2nccc(Nc3cc(C4CC4)[nH]n3)n2)cc1
